Laboratory results: ChEMBL document CHEMBL5335856, “Structurally Diverse Alkaloids with Anti-Renal-Fibrosis Activity from the Centipede Scolopendra subspinipes mutilans” (J Nat Prod, 2024)
The source made the active and inactive calls. The rule behind the calls is not given here.

Key:
[1] = molecular target: CD2-associated protein (Homo sapiens) (UniProt Q9Y5K6); experiment: Binding affinity to Cd2ap (unknown origin) at 200 uM preincubated for 2 hrs followed by pronase addition and measured after 30 mins by coomassie blue staining based SDS-PAGE gel analysis
NRK-52E [2] = experiment: Anti-renal-fibrosis activity in TGF-beta1 induced rat NRK-52E cells assessed as downregulation of collagen I protein level by Western blot analysis; format: functional, cell-based; details: dose 5-40 µM
[3] = molecular target: Kinesin-like protein KIF21A (Homo sapiens) (UniProt Q7Z4S6); experiment: Binding affinity to Kif21a (unknown origin) at 200 uM preincubated for 2 hrs followed by pronase addition and measured after 30 mins by coomassie blue staining based SDS-PAGE gel analysis
Sequence of Kinesin-like protein KIF21A (Homo sapiens) (Q7Z4S6 whole entry): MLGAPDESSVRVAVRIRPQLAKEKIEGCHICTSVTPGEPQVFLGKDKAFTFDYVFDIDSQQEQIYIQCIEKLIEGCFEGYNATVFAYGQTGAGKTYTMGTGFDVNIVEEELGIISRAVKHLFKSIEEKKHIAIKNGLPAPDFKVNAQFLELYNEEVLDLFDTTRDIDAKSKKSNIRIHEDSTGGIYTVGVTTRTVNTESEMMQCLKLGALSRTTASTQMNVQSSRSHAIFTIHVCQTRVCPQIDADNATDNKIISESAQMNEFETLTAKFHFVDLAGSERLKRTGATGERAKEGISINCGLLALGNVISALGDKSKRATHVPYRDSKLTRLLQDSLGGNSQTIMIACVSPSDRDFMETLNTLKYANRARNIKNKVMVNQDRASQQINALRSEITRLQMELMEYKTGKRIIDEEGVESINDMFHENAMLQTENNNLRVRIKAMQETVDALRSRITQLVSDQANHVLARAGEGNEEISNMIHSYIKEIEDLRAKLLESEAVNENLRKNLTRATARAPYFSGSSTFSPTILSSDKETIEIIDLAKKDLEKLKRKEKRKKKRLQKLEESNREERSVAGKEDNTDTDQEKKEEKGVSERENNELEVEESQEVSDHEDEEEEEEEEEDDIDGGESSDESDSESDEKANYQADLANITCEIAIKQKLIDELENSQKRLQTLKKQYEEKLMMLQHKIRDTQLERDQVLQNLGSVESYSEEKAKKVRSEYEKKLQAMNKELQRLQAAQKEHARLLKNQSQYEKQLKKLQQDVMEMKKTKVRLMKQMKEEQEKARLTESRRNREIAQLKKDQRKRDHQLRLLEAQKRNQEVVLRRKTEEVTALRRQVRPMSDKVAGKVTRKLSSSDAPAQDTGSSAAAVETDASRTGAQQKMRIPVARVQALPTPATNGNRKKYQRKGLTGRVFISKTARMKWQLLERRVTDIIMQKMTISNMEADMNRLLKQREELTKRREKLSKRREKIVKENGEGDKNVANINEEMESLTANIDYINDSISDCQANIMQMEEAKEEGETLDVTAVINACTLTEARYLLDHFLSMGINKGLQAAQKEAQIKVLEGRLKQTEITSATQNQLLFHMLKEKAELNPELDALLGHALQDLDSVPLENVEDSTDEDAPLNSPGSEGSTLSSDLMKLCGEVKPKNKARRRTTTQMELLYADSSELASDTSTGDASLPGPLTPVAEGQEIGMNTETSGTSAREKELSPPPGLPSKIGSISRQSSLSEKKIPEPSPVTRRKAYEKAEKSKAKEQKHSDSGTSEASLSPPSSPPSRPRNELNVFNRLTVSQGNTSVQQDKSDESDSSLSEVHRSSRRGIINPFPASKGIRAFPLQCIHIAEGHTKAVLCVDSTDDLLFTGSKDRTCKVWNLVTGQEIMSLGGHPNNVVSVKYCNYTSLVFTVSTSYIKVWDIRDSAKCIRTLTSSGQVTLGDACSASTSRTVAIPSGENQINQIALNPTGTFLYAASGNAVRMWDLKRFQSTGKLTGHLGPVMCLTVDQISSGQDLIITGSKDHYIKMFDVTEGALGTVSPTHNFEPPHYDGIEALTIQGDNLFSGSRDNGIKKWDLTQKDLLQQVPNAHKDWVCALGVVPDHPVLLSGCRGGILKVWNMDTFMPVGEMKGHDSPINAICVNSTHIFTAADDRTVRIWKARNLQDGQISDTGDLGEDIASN

[4] = molecular target: Protein YIF1A (Homo sapiens) (UniProt O95070); experiment: Binding affinity to Yif1a (unknown origin) at 200 uM preincubated for 2 hrs followed by pronase addition and measured after 30 mins by coomassie blue staining based SDS-PAGE gel analysis
Sequence of Protein YIF1A (Homo sapiens) (O95070 whole entry): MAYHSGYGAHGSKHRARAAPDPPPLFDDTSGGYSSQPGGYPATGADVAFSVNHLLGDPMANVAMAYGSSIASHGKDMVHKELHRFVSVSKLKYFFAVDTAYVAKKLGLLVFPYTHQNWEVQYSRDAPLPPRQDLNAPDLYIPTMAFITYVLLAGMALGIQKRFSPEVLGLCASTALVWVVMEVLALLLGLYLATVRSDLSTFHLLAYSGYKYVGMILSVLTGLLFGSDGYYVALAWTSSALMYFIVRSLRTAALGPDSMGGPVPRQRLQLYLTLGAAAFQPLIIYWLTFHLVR

NRK-52E [5] = experiment: Cytotoxicity against rat NRK-52E cells at 10 to 80 uM incubated for 48 hrs by CCK-8 assay; format: toxicity, cell-based; details: dose 10-80 µM
[6] = molecular target: Glutathione hydrolase 7 (Homo sapiens) (UniProt Q9UJ14); experiment: Binding affinity to Ggt7 (unknown origin) at 200 uM preincubated for 2 hrs followed by pronase addition and measured after 30 mins by coomassie blue staining based SDS-PAGE gel analysis
Sequence of Glutathione hydrolase 7 (Homo sapiens) (Q9UJ14 whole entry): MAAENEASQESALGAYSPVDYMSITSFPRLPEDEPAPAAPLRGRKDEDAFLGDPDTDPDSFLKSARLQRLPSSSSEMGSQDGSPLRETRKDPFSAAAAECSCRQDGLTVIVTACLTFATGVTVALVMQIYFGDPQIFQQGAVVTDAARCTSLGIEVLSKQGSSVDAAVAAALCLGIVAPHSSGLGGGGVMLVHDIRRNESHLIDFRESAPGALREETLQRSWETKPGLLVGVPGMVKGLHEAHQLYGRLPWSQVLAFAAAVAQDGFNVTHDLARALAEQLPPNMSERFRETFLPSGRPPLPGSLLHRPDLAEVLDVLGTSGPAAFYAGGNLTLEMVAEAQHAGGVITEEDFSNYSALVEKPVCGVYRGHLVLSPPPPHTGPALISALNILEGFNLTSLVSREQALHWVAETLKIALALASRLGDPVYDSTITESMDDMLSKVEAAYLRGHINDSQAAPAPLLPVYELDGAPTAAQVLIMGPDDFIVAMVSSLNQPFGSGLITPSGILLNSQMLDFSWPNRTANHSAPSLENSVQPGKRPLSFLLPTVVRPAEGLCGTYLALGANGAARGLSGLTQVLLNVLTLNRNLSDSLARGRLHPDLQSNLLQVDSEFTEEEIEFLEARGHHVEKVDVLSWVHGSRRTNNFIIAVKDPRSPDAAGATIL

[7] = molecular target: Cysteine and glycine-rich protein 2 (Homo sapiens) (UniProt Q16527); experiment: Binding affinity to Csrp2 (unknown origin) assessed as fold change in protein upregulation at 200 uM preincubated for 2 hrs followed by pronase addition and measured after 30 mins by coomassie blue staining based SDS-PAGE gel analysis
Sequence of Cysteine and glycine-rich protein 2 (Homo sapiens) (Q16527 whole entry): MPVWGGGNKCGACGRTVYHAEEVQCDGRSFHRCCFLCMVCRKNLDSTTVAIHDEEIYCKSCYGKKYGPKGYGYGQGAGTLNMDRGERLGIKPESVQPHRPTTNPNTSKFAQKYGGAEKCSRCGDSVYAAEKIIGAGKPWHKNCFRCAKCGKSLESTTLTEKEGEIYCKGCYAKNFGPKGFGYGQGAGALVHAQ

NRK-52E [8] = experiment: Anti-renal-fibrosis activity in TGF-beta1 induced rat NRK-52E cells assessed as downregulation of fibronectin protein level at 20 uM by Western blot analysis; format: functional, cell-based
NRK-52E [9] = experiment: Anti-renal-fibrosis activity in TGF-beta1 induced Lamp2 knocked down rat NRK-52E cells assessed as downregulation of fibronectin expression at 40 uM; format: functional, cell-based
[10] = molecular target: Lysosome-associated membrane glycoprotein 2 (Homo sapiens) (UniProt P13473); experiment: Binding affinity to Lamp2 (unknown origin) assessed as fold change in protein upregulation at 200 uM preincubated for 2 hrs followed by pronase addition and measured after 30 mins by coomassie blue staining based SDS-PAGE gel analysis
[11] = molecular target: 2-oxoisovalerate dehydrogenase subunit beta, mitochondrial (Homo sapiens) (UniProt P21953); experiment: Binding affinity to BCKDHB (unknown origin) at 200 uM preincubated for 2 hrs followed by pronase addition and measured after 30 mins by coomassie blue staining based SDS-PAGE gel analysis
Sequence of 2-oxoisovalerate dehydrogenase subunit beta, mitochondrial (Homo sapiens) (P21953 whole entry): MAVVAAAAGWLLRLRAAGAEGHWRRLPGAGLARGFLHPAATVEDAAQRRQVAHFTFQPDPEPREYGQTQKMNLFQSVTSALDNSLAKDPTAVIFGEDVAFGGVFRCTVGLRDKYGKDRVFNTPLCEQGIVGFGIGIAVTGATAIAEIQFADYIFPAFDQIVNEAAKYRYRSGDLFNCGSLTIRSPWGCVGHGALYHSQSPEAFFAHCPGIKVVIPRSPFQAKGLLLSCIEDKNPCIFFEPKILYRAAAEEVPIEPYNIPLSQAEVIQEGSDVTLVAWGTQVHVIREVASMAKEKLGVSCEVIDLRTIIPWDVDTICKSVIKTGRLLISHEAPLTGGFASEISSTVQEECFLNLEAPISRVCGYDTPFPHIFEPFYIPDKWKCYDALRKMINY

[12] = molecular target: U6 snRNA-associated Sm-like protein LSm8 (Homo sapiens) (UniProt O95777); experiment: Binding affinity to Lsm8 (unknown origin) at 200 uM preincubated for 2 hrs followed by pronase addition and measured after 30 mins by coomassie blue staining based SDS-PAGE gel analysis
[13] = molecular target: Chromosome transmission fidelity protein 18 homolog (Homo sapiens) (UniProt Q8WVB6); experiment: Binding affinity to Chtf18 (unknown origin) assessed as fold change in protein upregulation at 200 uM preincubated for 2 hrs followed by pronase addition and measured after 30 mins by coomassie blue staining based SDS-PAGE gel analysis
Sequence of Chromosome transmission fidelity protein 18 homolog (Homo sapiens) (Q8WVB6 whole entry): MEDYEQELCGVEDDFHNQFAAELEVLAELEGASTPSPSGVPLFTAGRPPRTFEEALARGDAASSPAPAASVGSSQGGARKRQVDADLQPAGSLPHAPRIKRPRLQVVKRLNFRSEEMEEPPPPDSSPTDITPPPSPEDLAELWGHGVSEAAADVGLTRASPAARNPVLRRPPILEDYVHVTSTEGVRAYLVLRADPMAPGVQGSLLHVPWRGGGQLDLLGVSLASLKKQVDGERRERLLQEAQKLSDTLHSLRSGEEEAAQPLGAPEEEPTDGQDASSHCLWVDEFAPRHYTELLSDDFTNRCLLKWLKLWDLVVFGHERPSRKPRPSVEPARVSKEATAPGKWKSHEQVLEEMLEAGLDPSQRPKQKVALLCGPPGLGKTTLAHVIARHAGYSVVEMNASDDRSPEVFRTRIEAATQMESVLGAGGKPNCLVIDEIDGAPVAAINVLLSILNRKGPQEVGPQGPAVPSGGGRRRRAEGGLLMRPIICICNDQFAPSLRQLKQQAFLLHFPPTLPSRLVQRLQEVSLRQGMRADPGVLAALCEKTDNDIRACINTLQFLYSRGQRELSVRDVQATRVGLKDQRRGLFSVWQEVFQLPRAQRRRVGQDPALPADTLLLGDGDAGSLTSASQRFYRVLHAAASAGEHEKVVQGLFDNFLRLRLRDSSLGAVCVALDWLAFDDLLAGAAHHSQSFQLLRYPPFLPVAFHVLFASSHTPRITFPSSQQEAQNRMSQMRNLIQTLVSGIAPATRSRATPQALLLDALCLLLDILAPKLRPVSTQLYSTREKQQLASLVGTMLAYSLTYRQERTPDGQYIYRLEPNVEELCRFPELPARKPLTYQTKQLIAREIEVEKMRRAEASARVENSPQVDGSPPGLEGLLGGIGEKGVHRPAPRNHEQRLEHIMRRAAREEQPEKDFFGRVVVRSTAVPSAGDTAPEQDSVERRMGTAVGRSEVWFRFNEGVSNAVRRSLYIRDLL

[14] = molecular target: Ubiquitin-like modifier-activating enzyme 5 (Homo sapiens) (UniProt Q9GZZ9); experiment: Binding affinity to Uba5 (unknown origin) at 200 uM preincubated for 2 hrs followed by pronase addition and measured after 30 mins by coomassie blue staining based SDS-PAGE gel analysis
[15] = molecular target: Deoxycytidine kinase (Homo sapiens) (UniProt P27707); experiment: Binding affinity to Dck (unknown origin) at 200 uM preincubated for 2 hrs followed by pronase addition and measured after 30 mins by coomassie blue staining based SDS-PAGE gel analysis
Sequence of Deoxycytidine kinase (Homo sapiens) (P27707 whole entry, looked up): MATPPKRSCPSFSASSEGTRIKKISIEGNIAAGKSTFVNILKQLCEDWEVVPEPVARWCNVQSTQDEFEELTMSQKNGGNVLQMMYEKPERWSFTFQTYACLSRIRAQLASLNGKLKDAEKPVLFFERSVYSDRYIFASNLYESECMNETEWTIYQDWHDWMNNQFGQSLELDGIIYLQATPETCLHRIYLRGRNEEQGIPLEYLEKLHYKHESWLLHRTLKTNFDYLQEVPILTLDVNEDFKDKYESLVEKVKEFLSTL

NRK-52E [16] = experiment: Anti-renal-fibrosis activity in TGF-beta1 induced rat NRK-52E cells assessed as downregulation of fibronectin expression at 40 uM; format: functional, cell-based
[17] = molecular target: Stress-induced-phosphoprotein 1 (Homo sapiens) (UniProt P31948); experiment: Binding affinity to Stip1 (unknown origin) assessed as fold change in protein upregulation at 200 uM preincubated for 2 hrs followed by pronase addition and measured after 30 mins by coomassie blue staining based SDS-PAGE gel analysis
Sequence of Stress-induced-phosphoprotein 1 (Homo sapiens) (P31948 whole entry, looked up): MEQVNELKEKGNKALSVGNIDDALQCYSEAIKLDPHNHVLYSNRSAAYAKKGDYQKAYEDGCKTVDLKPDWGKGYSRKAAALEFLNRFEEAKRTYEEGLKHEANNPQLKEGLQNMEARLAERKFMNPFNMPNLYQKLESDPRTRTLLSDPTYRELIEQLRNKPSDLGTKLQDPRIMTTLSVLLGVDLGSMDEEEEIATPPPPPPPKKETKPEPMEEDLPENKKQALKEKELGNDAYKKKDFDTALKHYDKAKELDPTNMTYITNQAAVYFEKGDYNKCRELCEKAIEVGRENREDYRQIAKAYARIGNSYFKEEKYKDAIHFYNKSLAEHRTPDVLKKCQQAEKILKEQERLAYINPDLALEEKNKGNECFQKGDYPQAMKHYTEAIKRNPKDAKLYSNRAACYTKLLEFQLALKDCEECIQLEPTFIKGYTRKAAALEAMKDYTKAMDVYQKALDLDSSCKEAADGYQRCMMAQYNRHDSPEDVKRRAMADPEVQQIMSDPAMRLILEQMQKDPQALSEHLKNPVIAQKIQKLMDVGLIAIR

[18] = molecular target: Rho-related GTP-binding protein RhoB (Homo sapiens) (UniProt P62745); experiment: Binding affinity to RHOB (unknown origin) at 200 uM preincubated for 2 hrs followed by pronase addition and measured after 30 mins by coomassie blue staining based SDS-PAGE gel analysis
[19] = molecular target: Tropomyosin alpha-3 chain (Homo sapiens) (UniProt P06753); experiment: Binding affinity to Tpm3 (unknown origin) at 200 uM preincubated for 2 hrs followed by pronase addition and measured after 30 mins by coomassie blue staining based SDS-PAGE gel analysis
RAW264.7 = experiment: Antiinflammatory activity against LPS-induced mouse RAW264.7 cells assessed as reduction in COX-2 protein level at 20 uM; format: functional, cell-based
[20] = molecular target: ATP-dependent RNA helicase DHX8 (Homo sapiens) (UniProt Q14562); experiment: Binding affinity to Dhx8 (unknown origin) at 200 uM preincubated for 2 hrs followed by pronase addition and measured after 30 mins by coomassie blue staining based SDS-PAGE gel analysis
Homo sapiens = organism: Homo sapiens; experiment: Binding affinity to Wdr95 (unknown origin) at 200 uM preincubated for 2 hrs followed by pronase addition and measured after 30 mins by coomassie blue staining based SDS-PAGE gel analysis
NRK-52E [21] = experiment: Anti-renal-fibrosis activity in TGF-beta1 induced rat NRK-52E cells assessed as downregulation of alpha-SMA protein level at 20 uM by Western blot analysis; format: functional, cell-based
NRK-52E [22] = experiment: Anti-renal-fibrosis activity in TGF-beta1 induced Lamp2 knocked down rat NRK-52E cells assessed as downregulation of collagen I expression at 40 uM; format: functional, cell-based
[23] = molecular target: Collagen alpha-1(I) chain (Homo sapiens) (UniProt P02452); experiment: Binding affinity to Col1a1 (unknown origin) at 200 uM preincubated for 2 hrs followed by pronase addition and measured after 30 mins by coomassie blue staining based SDS-PAGE gel analysis
[24] = molecular target: Transcription initiation factor TFIID subunit 6 (Homo sapiens) (UniProt P49848); experiment: Binding affinity to Taf6 (unknown origin) at 200 uM preincubated for 2 hrs followed by pronase addition and measured after 30 mins by coomassie blue staining based SDS-PAGE gel analysis
[25] = molecular target: Chromobox protein homolog 5 (Homo sapiens) (UniProt P45973); experiment: Binding affinity to Cbx5 (unknown origin) assessed as fold change in protein upregulation at 200 uM preincubated for 2 hrs followed by pronase addition and measured after 30 mins by coomassie blue staining based SDS-PAGE gel analysis
[26] = molecular target: Heat shock 70 kDa protein 4L (Homo sapiens) (UniProt O95757); experiment: Binding affinity to Hspa4l (unknown origin) assessed as fold change in protein upregulation at 200 uM preincubated for 2 hrs followed by pronase addition and measured after 30 mins by coomassie blue staining based SDS-PAGE gel analysis

Question: For `COc1c(O)nc2c(O)cccc2c1OC`, which Activity [1] is on record?
Answer: The Activity was “Active”.

Question: And the Activity (NRK-52E [2])?
Answer: Its Activity is “Dose-Dependent Effect”.

Question: What about the Activity [3] of the same molecule?
Answer: The Activity was “Active”.

Question: What about the Activity [4] of the same molecule?
Answer: The Activity was “Active”.

Question: And the Activity (NRK-52E [5])?
Answer: Its Activity is “Non-Toxic”.

Question: What about the Activity [6] of the same molecule?
Answer: Its Activity is “Active”.

Question: What about the fold change (FC) [7] of the same molecule?
Answer: Its fold change (FC) is 1.29.

Question: What about the Activity (NRK-52E [8]) of the same molecule?
Answer: The Activity was “Active”.

Question: What about the Activity (NRK-52E [9]) of the same molecule?
Answer: The Activity was “inactive”.

Question: And the fold change (FC) [10]?
Answer: Its fold change (FC) is 2.42.

Question: What about the Activity [11] of the same molecule?
Answer: The Activity was “Active”.

Question: What about the Activity [12] of the same molecule?
Answer: Its Activity is “Active”.

Question: And the fold change (FC) [13]?
Answer: Its fold change (FC) is 2.05.

Question: And the Activity [14]?
Answer: Its Activity is “Active”.

Question: What about the Activity [15] of the same molecule?
Answer: The Activity was “Active”.

Question: What about the Activity (NRK-52E [16]) of the same molecule?
Answer: Its Activity is “Active”.

Question: What about the fold change (FC) [17] of the same molecule?
Answer: Its fold change (FC) is 1.33.

Question: And the Activity [18]?
Answer: Its Activity is “Active”.

Question: And the Activity [19]?
Answer: Its Activity is “Active”.

Question: And the Activity (RAW264.7)?
Answer: The Activity was “Active”.

Question: And the Activity [20]?
Answer: Its Activity is “Active”.

Question: What about the Activity (Homo sapiens) of the same molecule?
Answer: Its Activity is “Active”.

Question: What about the Activity (NRK-52E [21]) of the same molecule?
Answer: Its Activity is “Active”.

Question: What about the Activity (NRK-52E [22]) of the same molecule?
Answer: The Activity was “inactive”.

Question: What about the Activity [23] of the same molecule?
Answer: The Activity was “Active”.

Question: And the Activity [24]?
Answer: The Activity was “Active”.

Question: And the fold change (FC) [25]?
Answer: The fold change (FC) was 1.25.

Question: And the fold change (FC) [26]?
Answer: Its fold change (FC) is 1.28.
